{"source": "patent US10101331B2", "about": "“Methods of evaluating patients using E-cadherin or vimentin” (AGIOS PHARMACEUTICALS, INC, priority 2012, dated 2018)", "test_in_all_cases": "Lung cancer cell line panel screened for sensitivity to BPTES, 72 hr proliferation assay", "type_in_all_cases": "cell-based", "key": {"HCC15": {"tested_on": "HCC15", "source_text": "(§1) Of these, 44 of the cell lines have been classified as non-small cell lung cancer (NSCLC). […] Four of the top 25 transcriptional/cellular pathways were related to the epithelial-mesenchymal transition (EMT) (ranks 1, 15, 23, 25 of FIG. 2). […] Low E-cadherin/high vimentin are well-defined markers of cells that have a mesenchymal phenotype as characterized for example, in any one of the following references: (Yauch et al., (2005) Cin Cancer Res 11:24; Savagner et al., (2010) Ann Oncol. 21(suppl 7): vii89; Thiery et al., (2002) Nature Reviews Cancer June vol 2:442)."}, "NCI-H1436": {"tested_on": "NCI-H1436", "source_text": "as §1"}, "NCI-H1694": {"tested_on": "NCI-H1694", "source_text": "as §1"}, "NCI-H1734": {"tested_on": "NCI-H1734", "source_text": "as §1"}, "DMS-153": {"tested_on": "DMS-153", "details": "DMS-153 cell line", "source_text": "as §1"}, "NCI-H82": {"tested_on": "NCI-H82", "source_text": "as §1"}, "NCI-H1618": {"tested_on": "NCI-H1618", "source_text": "as §1"}, "NCI-H1838": {"tested_on": "NCI-H1838", "source_text": "as §1"}, "NCI-H2126": {"tested_on": "NCI-H2126", "source_text": "as §1"}, "NCI-H2107": {"tested_on": "NCI-H2107", "source_text": "as §1"}, "NCI-H1975": {"tested_on": "NCI-H1975", "source_text": "as §1"}, "NCI-H292": {"tested_on": "NCI-H292", "source_text": "as §1"}, "CALU-6": {"tested_on": "CALU-6", "details": "CALU-6 cell line", "source_text": "as §1"}, "SW-1573": {"tested_on": "SW-1573", "source_text": "as §1"}, "NCI-H209": {"tested_on": "NCI-H209", "source_text": "as §1"}, "COR-L23": {"tested_on": "COR-L23", "source_text": "as §1"}, "NCI-H2122": {"tested_on": "NCI-H2122", "source_text": "as §1"}, "NCI-H1299": {"tested_on": "NCI-H1299", "source_text": "as §1"}, "NCI-H2030": {"tested_on": "NCI-H2030", "source_text": "as §1"}, "NCI-H1092": {"tested_on": "NCI-H1092", "source_text": "as §1"}, "NCI-H1770": {"tested_on": "NCI-H1770", "source_text": "as §1"}, "NCI-H838": {"tested_on": "NCI-H838", "source_text": "as §1"}, "NCI-H774": {"tested_on": "NCI-H774", "source_text": "as §1"}, "NCI-H2009": {"tested_on": "NCI-H2009", "source_text": "as §1"}, "NCI-H460": {"tested_on": "NCI-H460", "source_text": "as §1"}, "NCI-H2170": {"tested_on": "NCI-H2170", "source_text": "as §1"}, "NCI-H1437": {"tested_on": "NCI-H1437", "source_text": "as §1"}, "NCI-H1563": {"tested_on": "NCI-H1563", "source_text": "as §1"}, "NCI-H524": {"tested_on": "NCI-H524", "source_text": "as §1"}, "NCI-H358": {"tested_on": "NCI-H358", "source_text": "as §1"}, "A427": {"tested_on": "A427", "source_text": "as §1"}, "NCI-H1623": {"tested_on": "NCI-H1623", "source_text": "as §1"}, "NCI-H446": {"tested_on": "NCI-H446", "source_text": "as §1"}, "NCI-H1581": {"tested_on": "NCI-H1581", "source_text": "as §1"}, "NCI-H1666": {"tested_on": "NCI-H1666", "source_text": "as §1"}, "NCI-H1650": {"tested_on": "NCI-H1650", "source_text": "as §1"}}}
{"smiles": "O=C(Cc1ccccc1)Nc1nnc(CCSCCc2nnc(NC(=O)Cc3ccccc3)s2)s1", "note": "[BPTES]", "values": [{"measurement": "Max Inh @ 10 uM (%)", "setting": "HCC15; HCC15, 10 uM", "value": 40, "unit": "%"}, {"measurement": "Mu/max @10 uM", "setting": "HCC15; HCC15, 10 uM", "value": 0.64}, {"measurement": "μ/μmax @10 uM", "setting": "HCC15; HCC15, 10 uM", "value": 0.64}, {"measurement": "μ/μmax", "setting": "HCC15; HCC15 cell line", "value": 0.64}, {"measurement": "μ/μmax", "setting": "NCI-H1436", "value": 0.68}, {"measurement": "μ/μmax", "setting": "NCI-H1694", "value": 1.00}, {"measurement": "μ/μmax", "setting": "NCI-H1734", "value": "−0.12"}, {"measurement": "μ/μmax", "setting": "DMS-153", "value": 0.58}, {"measurement": "μ/μmax", "setting": "NCI-H82", "value": 0.90}, {"measurement": "μ/μmax", "setting": "NCI-H1618", "value": 0.53}, {"measurement": "μ/μmax", "setting": "NCI-H1838", "value": 0.63}, {"measurement": "μ/μmax", "setting": "NCI-H2126", "value": 1.00}, {"measurement": "μ/μmax", "setting": "NCI-H2107", "value": 0.79}, {"measurement": "Max Inh @ 10 uM (%)", "setting": "NCI-H1975; NCI-H1975, 10 uM", "value": 18, "unit": "%"}, {"measurement": "Mu/max @10 uM", "setting": "NCI-H1975; NCI-H1975, 10 uM", "value": 0.75}, {"measurement": "μ/μmax @10 uM", "setting": "NCI-H1975; NCI-H1975, 10 uM", "value": 0.75}, {"measurement": "μ/μmax", "setting": "NCI-H1975; NCI-H1975 cell line", "value": 0.75}, {"measurement": "μ/μmax", "setting": "NCI-H292", "value": 0.89}, {"measurement": "μ/μmax", "setting": "CALU-6", "value": 0.82}, {"measurement": "Max Inh @ 10 uM (%)", "setting": "SW-1573; SW-1573, 10 uM", "value": 68, "unit": "%"}, {"measurement": "Mu/max @10 uM", "setting": "SW-1573; SW-1573, 10 uM", "value": 0.12}, {"measurement": "μ/μmax @10 uM", "setting": "SW-1573; SW-1573, 10 uM", "value": 0.12}, {"measurement": "μ/μmax", "setting": "SW-1573; SW-1573 cell line", "value": 0.12}, {"measurement": "μ/μmax", "setting": "NCI-H209", "value": 0.64}, {"measurement": "μ/μmax", "setting": "COR-L23", "value": 0.96}, {"measurement": "Max Inh @ 10 uM (%)", "setting": "NCI-H2122; NCI-H2122, 10 uM", "value": 58, "unit": "%"}, {"measurement": "Mu/max @10 uM", "setting": "NCI-H2122; NCI-H2122, 10 uM", "value": 0.56}, {"measurement": "μ/μmax @10 uM", "setting": "NCI-H2122; NCI-H2122, 10 uM", "value": 0.56}, {"measurement": "μ/μmax", "setting": "NCI-H2122; NCI-H2122 cell line", "value": 0.56}, {"measurement": "μ/μmax", "setting": "NCI-H1299", "value": 0.49}, {"measurement": "Max Inh @ 10 uM (%)", "setting": "NCI-H2030; NCI-H2030, 10 uM", "value": 87, "unit": "%"}, {"measurement": "Mu/max @10 uM", "setting": "NCI-H2030; NCI-H2030, 10 uM", "value": 0.37}, {"measurement": "μ/μmax @10 uM", "setting": "NCI-H2030; NCI-H2030, 10 uM", "value": 0.37}, {"measurement": "μ/μmax", "setting": "NCI-H2030; NCI-H2030 cell line", "value": 0.37}, {"measurement": "μ/μmax", "setting": "NCI-H1092", "value": 0.77}, {"measurement": "μ/μmax", "setting": "NCI-H1770", "value": 0.56}, {"measurement": "sensitivity to BPTES", "setting": "NCI-H838; NCI-H838", "value": "moderate level of sensitivity"}, {"measurement": "Max Inh @ 10 uM (%)", "setting": "NCI-H838; NCI-H838, 10 uM", "value": 37, "unit": "%"}, {"measurement": "Mu/max @10 uM", "setting": "NCI-H838; NCI-H838, 10 uM", "value": 0.66}, {"measurement": "μ/μmax @10 uM", "setting": "NCI-H838; NCI-H838, 10 uM", "value": 0.66}, {"measurement": "μ/μmax", "setting": "NCI-H838; NCI-H838 cell line", "value": 0.66}, {"measurement": "μ/μmax", "setting": "NCI-H774", "value": 0.54}, {"measurement": "μ/μmax", "setting": "NCI-H2009", "value": 0.96}, {"measurement": "Max Inh @ 10 uM (%)", "setting": "NCI-H460; NCI-H460, 10 uM", "value": 18, "unit": "%"}, {"measurement": "Mu/max @10 uM", "setting": "NCI-H460; NCI-H460, 10 uM", "value": 0.92}, {"measurement": "μ/μmax @10 uM", "setting": "NCI-H460; NCI-H460, 10 uM", "value": 0.92}, {"measurement": "μ/μmax", "setting": "NCI-H460; NCI-H460 cell line", "value": 0.92}, {"measurement": "μ/μmax", "setting": "NCI-H2170", "value": 0.82}, {"measurement": "Max Inh @ 10 uM (%)", "setting": "NCI-H1437; NCI-H1437, 10 uM", "value": 27, "unit": "%"}, {"measurement": "Mu/max @10 uM", "setting": "NCI-H1437; NCI-H1437, 10 uM", "value": 0.81}, {"measurement": "μ/μmax @10 uM", "setting": "NCI-H1437; NCI-H1437, 10 uM", "value": 0.81}, {"measurement": "μ/μmax", "setting": "NCI-H1437; NCI-H1437 cell line", "value": 0.81}, {"measurement": "Max Inh @ 10 uM (%)", "setting": "NCI-H1563; NCI-H1563, 10 uM", "value": 8, "unit": "%"}, {"measurement": "Mu/max @10 uM", "setting": "NCI-H1563; NCI-H1563, 10 uM", "value": 0.92}, {"measurement": "μ/μmax @10 uM", "setting": "NCI-H1563; NCI-H1563, 10 uM", "value": 0.92}, {"measurement": "μ/μmax", "setting": "NCI-H1563; NCI-H1563 cell line", "value": 0.92}, {"measurement": "μ/μmax", "setting": "NCI-H524", "value": 0.53}, {"measurement": "sensitivity to BPTES", "setting": "NCI-H358; NCI-H358", "value": "relatively BPTES insensitive"}, {"measurement": "Max Inh @ 10 uM (%)", "setting": "NCI-H358; NCI-H358, 10 uM", "value": 27, "unit": "%"}, {"measurement": "Mu/max @10 uM", "setting": "NCI-H358; NCI-H358, 10 uM", "value": 0.66}, {"measurement": "μ/μmax @10 uM", "setting": "NCI-H358; NCI-H358, 10 uM", "value": 0.66}, {"measurement": "μ/μmax", "setting": "NCI-H358; NCI-H358 cell line", "value": 0.66}, {"measurement": "Max Inh @ 10 uM (%)", "setting": "A427; A427, 10 uM", "value": 86, "unit": "%"}, {"measurement": "Mu/max @10 uM", "setting": "A427; A427, 10 uM", "value": "−0.49"}, {"measurement": "μ/μmax @10 uM", "setting": "A427; A427, 10 uM", "value": "−0.49"}, {"measurement": "μ/μmax", "setting": "A427; A427 cell line", "value": "−0.49"}, {"measurement": "μ/μmax", "setting": "NCI-H1623", "value": 0.79}, {"measurement": "μ/μmax", "setting": "NCI-H446", "value": 0.84}, {"measurement": "μ/μmax", "setting": "NCI-H1581", "value": 0.51}, {"measurement": "μ/μmax", "setting": "NCI-H1666", "value": 1.00}, {"measurement": "μ/μmax", "setting": "NCI-H1650", "value": 0.26}]}
